Experimental data from patent publication US20200283728A1, “MODIFIED T CELLS AND USES THEREOF” (MUSC FOUNDATION FOR RESEARCH DEVELOPMENT, priority 2017, published 2020).

How the values were obtained:
[1] = test system: ICOS-activated Th17 cells; experiment: Transcription factor expression (RORγt, cMaf, STAT-3) in ICOS-activated Th17 cells; assay type: cell-based, mouse; details: day 8
Method: (§1) Expansion of Th17 cells with Wnt/β-catenin and PI3K inhibitors in vitro: TRP-1 splenocytes were activated with irradiated (10Gy) C57BL/6 splenocytes pulsed with TRP-1 peptide (1 μM) added at a 5:1 ratio in 24-well plates (1 mL media containing 1.5×10^6 cells/well). TRP-1 splenocytes were co-stimulated with soluble ICOS agonist (Clone 398.4A, BioLegend) and polarized toward Th17 phenotype as describe above. For in vitro expansion from day 0 of culture 10 μM Ly294002 (Cayman Chemical) or 10 μM CAL-101 (Selleckchem) and/or 60 μM indomethacin (Sigma-Aldrich) was added. Also dimethylosulfoxide 0.01% (Sigma-Aldrich) was added as a control. Th17 cultures were also supplemented with hrIL-2 (100 IU/mL) and rmIL-23 ([…]; R&D). Medium, including cytokines and inhibitors was refreshed every 2-3 days.
Nuclear and cytoplasmic protein were isolated by lysis using Nuclear and Cytoplasmic Extraction Reagent with Protease&Phosphatase Inhibitor Cocktail (ThermoScientific). Protein concentration was quantified using […] (ThermoScientific) according to the manufacturer's instructions. 10 to 30 μg of total protein was separated on a Mini-PROTEAN TGX, Any kD™ gel, followed by transfer onto PVDF membrane (Bio-Rad). The membranes were blocked with 5% BSA in TBS buffer containing 0.5% Tween20. The membranes were then incubated overnight at 4° C. with the primary antibodies to β-catenin (BD Bioscience), p110δ, Tcf7 (Abcam), RORγt (Affymetrix) phospho-Akt, total-Akt, STAT-3, Histone-3, Lef1 (abcam), and GAPDH (Cell Signaling) at the concentration recommended by manufactures. […] Quantification of optical density performed using Fiji analysis software (NIH).
Surface staining of Th17 cells was performed with anti-CD4-APCCy7, anti-Vβ14-FITC (BD Biosciences) anti-CD62L-APC, anti-CD44-PerCPCy5.5, anti-CCR6-PE, anti-CD69-PECy7, anti-CCR7-PE, anti-CD27-PE, anti-CD28-PerCPCy5.5, anti-ICOS-PE and anti-CD25-PECy7/FITC (BioLegend) and viability stain (Invitrogen) on day 8. […] Data were analyzed with FlowJo software (TreeStar). […]

[2] = test system: pmel-1 CD8^+ T cells; experiment: pmel-1 CD8+ T cells primed with AKTi or CAL-101 in culture: phenotype and expansion; assay type: cell-based, mouse
Method: (§2) Pmel-1 CD8^+ T cells were prepared from whole splenocytes activated using 1 μM hgp100 peptide+100 IU rhIL-2/mL. Starting 3 hours after initial activation, cells were treated with either DMSO vehicle, AKT inhibitor VIII (AKTi) (Calbiochem), or CAL-101 (Selleckchem) at indicated doses. Cells were supplemented with culture media containing 100 IU rhIL-2/mL and vehicle or drug when expanded. Human Normal Donor Peripheral T cells: Polyclonal CD3^+ T cells were prepared via negative bead selection (Dynal) from peripheral blood lymphocytes and activated using CD3/CD28 beads (Gibco) with 100 IU rhIL-2/mL DMSO vehicle, 1 μM or 10 μM AKTi or CAL-101 throughout culture as indicated. On day 2 of culture, T cells were engineered to be mesothelin specific via lentiviral transduction with an anti-mesothelin chimeric antigen receptor (CAR) which contained a single-chain variable fragment (scFv) fusion protein specific for mesothelin and linked to the T cell receptor ζ (TCRζ) signaling domain and 4-1BB as described previously (Carpenito et al., 2009) (gifts from the June lab).
(§3) Surface staining of Th17 cells was performed with anti-CD4-APCCy7, anti-Vβ14-FITC (BD Biosciences) anti-CD62L-APC, anti-CD44-PerCPCy5.5, anti-CCR6-PE, anti-CD69-PECy7, anti-CCR7-PE, anti-CD27-PE, anti-CD28-PerCPCy5.5, anti-ICOS-PE and anti-CD25-PECy7/FITC (BioLegend) and viability stain (Invitrogen) on day 8. For all intracellular staining of cytokines (anti-IL-17 PerCPCy5.5, anti-IFN-γ-v450, anti-IL-2-FITC, anti-IL-21-APC, anti-IL-22-PE, anti-TNF-α-FITC; BioLegend) and transcription factors (anti-RORγt-APC, anti-cMaf-PerCPCy5.5, anti-STAT-3-PE, anti-FoxP3-FITC/PE, anti-T-bet-v450; eBiosciences), cells were stimulated for 4-5 h with 50 ng/mL PMA and 750 ng/mL ionomycin (Sigma-Aldrich). Additional antibodies used include: CD127-PECy7 clone A019D5, CD25-APCCy7 clone BC96, CD4-APCCy7 OKT4, CD45RO-APC clone UCHL1, CD62L-FITC clone DREG-56, CD8-PerCPCy5.5 clone SKI, TIM3-PE clone F38-2E2 (biolegend); CCR7-PECy7 clone CCR7, CD8-V450 clone RPA-T8, PD1-FITC clone M1H4, (BD Biosciences). Antibodies used for mouse cell analysis: CD127-PE/V450 clone A7R34, CD25-FITC clone 7D4, CD44-PerCPCy5.5/FITC clone IM7, CD69-PECy7 clone HI.2F3, CD8-PerCPCy5.5 clone 53-6.7, CD8-PECy7 clone YTS156.7.7, PD1-PerCPCy5.5 clone 29F.1A12 V[…]13-PE/APC clone MR12-3/MR12-4 (Biolegend), CD4-APCCy7 clone RM4-5, CD62L-APC clone MEL-14, KLRG1-APC/V450 clone 2F1 (BD). After 1 h, Monensin (BioLegend) was added per manufacturer's instructions. After surface staining, intracellular staining for cytokines and transcription factors was performed using Fixation and Permeabilization buffers (BioLegend) and Foxp3 Staining Buffers (eBioscience), respectively. Flow cytometry acquisition was performed on a FACSVerse or Accuri (BD Bioscience). Data were analyzed with FlowJo software (TreeStar). For experiments with sorted cells, CD8^+Vb13^+ T cells were sorted from pmel-1 cultures using Dynabeads untouched mouse CD8^+ T cell kit (Invitrogen) and a FACSAria cell sorting machine (BD Biosciences).

[3] = test system: Wnt/β-catenin pathway; experiment: Wnt/β-catenin pathway expression in Th17 cells (Western blot, real-time PCR); assay type: cell-based, mouse; details: re-stimulation in vitro; compared to control Th17 cells
Method: Total RNA isolation was performed using the Trizol method (Life Technologies) according to the manufacturer's procedure. RNA quantity and purity was assessed using a NanoDrop ND-1000. 1 μg total RNA was transcribed with Transcriptor First Strand cDNA Synthesis Kit (Roche). qReal-time PCR was performed on LightCycler480 machine following manufacturer's protocols (Roche). Probes utilized include Rorc, IL-17, Cmaf IL-21, Cpt-1a, Tcf-7, Lef-1, Cnnb1. All probes are commercially available (ABI). Relative gene expression was determined by the comparative CT method (45). β-actin was used as housekeeping gene.
(§4) Nuclear and cytoplasmic protein were isolated by lysis using Nuclear and Cytoplasmic Extraction Reagent with Protease&Phosphatase Inhibitor Cocktail (ThermoScientific). Protein concentration was quantified using […] (ThermoScientific) according to the manufacturer's instructions. 10 to 30 μg of total protein was separated on a Mini-PROTEAN TGX, Any kD™ gel, followed by transfer onto PVDF membrane (Bio-Rad). The membranes were blocked with 5% BSA in TBS buffer containing 0.5% Tween20. The membranes were then incubated overnight at 4° C. with the primary antibodies to β-catenin (BD Bioscience), p110δ, Tcf7 (Abcam), RORγt (Affymetrix) phospho-Akt, total-Akt, STAT-3, Histone-3, Lef1 (abcam), and GAPDH (Cell Signaling) at the concentration recommended by manufactures. Subsequently, membranes were washed and incubated for 1 h at room temperature with (HRP)-conjugated goat antibodies to mouse or rabbit IgG (Cell Signaling). For detection of protein, chemiluminescence method was performed using Western ECL Blotting Substrate (Bio-Rad) followed by X-ray film-based imaging method (ThermoScientific). Quantification of optical density performed using Fiji analysis software (NIH).

[4] = test system: ICOS-activated Th17 cells; experiment: Cytokine production of ICOS-stimulated TRP-1 Th17 cells expanded with inhibitors (intracellular FACS); assay type: cell-based, mouse
Method: as §1, §3

[5] = test system: ICOS-activated Th17 cells; experiment: Memory and regulatory phenotype of ICOS-stimulated Th17 cells expanded with inhibitors (flow cytometry); assay type: cell-based, mouse
Method: as §1
Surface staining of Th17 cells was performed with anti-CD4-APCCy7, anti-Vβ14-FITC (BD Biosciences) anti-CD62L-APC, anti-CD44-PerCPCy5.5, anti-CCR6-PE, anti-CD69-PECy7, anti-CCR7-PE, anti-CD27-PE, anti-CD28-PerCPCy5.5, anti-ICOS-PE and anti-CD25-PECy7/FITC (BioLegend) and viability stain (Invitrogen) on day 8. For all intracellular staining of cytokines (anti-IL-17 PerCPCy5.5, anti-IFN-γ-v450, anti-IL-2-FITC, anti-IL-21-APC, anti-IL-22-PE, anti-TNF-α-FITC; BioLegend) and transcription factors (anti-RORγt-APC, anti-cMaf-PerCPCy5.5, anti-STAT-3-PE, anti-FoxP3-FITC/PE, anti-T-bet-v450; eBiosciences), cells were stimulated for 4-5 h with 50 ng/mL PMA and 750 ng/mL ionomycin (Sigma-Aldrich). Additional antibodies used include: CD127-PECy7 clone A019D5, CD25-APCCy7 clone BC96, CD4-APCCy7 OKT4, CD45RO-APC clone UCHL1, CD62L-FITC clone DREG-56, CD8-PerCPCy5.5 clone SKI, TIM3-PE clone F38-2E2 (biolegend); CCR7-PECy7 clone CCR7, CD8-V450 clone RPA-T8, PD1-FITC clone M1H4, (BD Biosciences). […] Data were analyzed with FlowJo software (TreeStar). […]

[6] = test system: human CD3^+ T cells; experiment: Human CD3+ T cells expanded with CD3/CD28 beads under CAL-101 or AKTi; assay type: cell-based
Method: as §2, §3

[7] = test system: human T cells; experiment: Western blot of nuclear β-catenin, Lef1, Tcf7 in human T cells; assay type: cell-based
Method: as §4

[8] = test system: human T cells; experiment: RNA sequencing of CAL-101 or AKTi treated human T cells; assay type: cell-based; details: vs vehicle
Method: Library preparation: mRNA libraries were prepared in triplicate from each donor using the TruSeq RNA V2 kit(Illumina). Cleaved RNA fragments were copied into first strand cDNA then underwent second strand cDNA synthesis. End repair of cDNA fragments, single ‘A’ base addition and ligation to the adapter followed. The product was then purified and enriched with PCR to create the final cDNA library. Transcriptome sequencing: cDNA libraries were clonally clustered onto the sequencing flow cell using the c-BOT (Illumina) Cluster Generation Station and Hiseq Rapid Paired-End Cluster Kit v2 (Illumina). Clustered flow cells were sequenced on the Illumina HiSeq2500 Sequencing System using the Hiseq Rapid SBS Kit V2 (Illumina). Analysis: Differential gene expression analysis contrasting the factors representing different treatment protocols (CAL101 vs Vehicle; or AKTi vs Vehicle) was performed by running kallisto on the raw paired-end RNA sequencing data (in FASTQ format) to estimate transcript-level read counts based on Ensembl GRCh37 cDNA assembly for each sample (NCBI GEO database Accession Number: GSE101497). Estimated transcript-level counts were aggregated across official gene symbols using the tximport package with mapping provided by the biomaRt utility. […]

[9] = 8 days of expansion, CAL-101 10 μM, Indo 60 μM, Ly294002 10 μM, vs un-treated Th17 cells

SMILES: CC[C@H](Nc1ncnc2[nH]cnc12)c1nc2cccc(F)c2c(=O)n1-c1ccccc1 [CAL-101]
- cMaf expression ([1]; control 62.9±4.8%): 42.5±3.9%
- RORγt expression ([1]; control 65.5±9.5%): 21.9±8.1%
- STAT-3 expression ([1]; control approximately 83%): 13.8±5.2%
- CD62L+ cells before transfer ([2]; sort experiment, bulk vehicle 37%): 97%

SMILES: O=c1cc(N2CCOCC2)oc2c(-c3ccccc3)cccc12 [Ly294002, 2-(4-morpholinyl)-8-phenyl-4H-1-benzopyran-4-one]
- Tcf7 protein level after re-stimulation [3]: could not replace the CAL-101 effect on Tcf7 overexpression
- IFN-γ production [4, 9]: suppress
- IL-17A production [4, 9]: suppress
- cytokine secretion pattern overall ([4]; compared with the results for CAL-101 or Indo plus CAL-101): Similarly results were obtained
- FoxP3 and CD25 expression ([5]; cultured 8 days and upon secondary stimulation in vitro): expressed more FoxP3 and CD25
- central memory phenotype (CD44^highCD62L^high) ([5]; day 8 in vitro): also supported generation of TCM17 cells

SMILES: O=c1[nH]c2ccccc2n1C1CCN(Cc2ccc(-c3nc4cc5[nH]cnc5cc4nc3-c3ccccc3)cc2)CC1 [AKTi]
- CD25 expression [6]: did not impact
- CD45RO levels [6]: similar
- growth of human T cells ([6]; 10 μM drug, 8 days): dramatically inhibited growth
- CD62L expression ([6]; over vehicle): slightly increased
- TIM3 expression ([6]; post-activation, vs untreated T cells): prevented the up-regulation
- logarithmic expansion of mouse pmel-1 CD8+ T cells ([2]; 10 μM drug): neither 10 μM AKTi or 10 μM CAL-101 impaired
- CD69 expression ([2]; 5 days of culture): decreased
- cells expressing CD62L ([2]; 5 days of culture, vehicle 65%): nearly all
- CD25 expression ([2]; in culture): slightly reduced
- CD127 expression ([2]; in culture): substantially elevated
- nuclear Lef1 protein [7]: slightly higher, though not statistically significant
- nuclear Tcf7 protein ([7]; over vehicle): did not
- effector transcripts Fos, JunB, Gzmb, Ifng [8]: down-regulated
